The nature of series [1]: Solubility of benzoyl peroxide. It counts as physicochemical.
For series [2] the following is noted: cited from earlier work.
For series [3] the following is noted: human skin specimens used within 7 to 10 days; cited from earlier work.

Read-outs that look alike come from different tables or passages of the source.

Results on one molecule are retold here after patent US5879716A, “Methods and compositions for topical delivery of benzoyl peroxide” (priority 1993, dated 1999).

Take `O=C(OOC(=O)c1ccccc1)c1ccccc1` [Benzoyl peroxide, benzoyl peroxide]: the solution concentration obtainable entry in series [1] (acetone and isopropanol) is recorded as “up to 10 % by weight”. The “solubility of the drug in the formulation” value in series [1] (formulations F and G) is on record as “very low solubility”. The solubility result in series [1] (water or normal saline solution) was “exceedingly low solubility”; in series [2] (alcohols) it was “slightly soluble in alcohols”; in series [2] (organic solvents), “soluble in nearly all organic solvents”; in series [2] (organic solvents, listed as benzoyl peroxide), “limited solubility in most solvents”; in series [2] (water) it was “slightly soluble in water”. The “metabolism during skin absorption” value in series [3] is “metabolized to benzoic acid and accumulated as such in the receptor fluid”.
